# What was measured:
# hDMCs = assay: Cytotoxicity assay of BTT 3033 (cell viability assay, WST); assay type: cell-based, human; conditions: for Viability (A.U.): 37° C., 90 min
# Description: To evaluate cell viability, EZ-Cytox cell viability assay kit (Daeillab Service Ltd., Seoul, Republic of Korea) was used according to the manufacturer's instructions. Water-soluble tetrazolium salt (WST) reagent was added to each well. After 1 hour of incubation, the absorbance of the supernatant was measured at the wavelength of 450 nm on a microplate absorbance reader. The viability was assessed by normalized absorbance values.
# For cytotoxicity assay of BTT 3033, hDMCs were treated with BTT 3033 in a dose dependent manner and incubated at 37° C. for 90 min. After incubation, cell viability assay was performed.
# integrin α2β1 = integrin α2β1 (Homo sapiens, UniProt P17301); conditions: according to manufacturer's instructions; read-out: half maximal effective concentration (EC50); cited from earlier work
# co-cultured hDMCs = assay: Adhesion assay of co-cultured hDMCs to ECM components after integrin α2β1 inhibitor treatment; assay type: cell-based, human; conditions: 130 nM, 37° C., 30 min
# Description: Adhesion assays identifying ECM components adhering to hDMC were performed using CytoSelect 48-well cell adhesion assay kits (Cell Biolabs Inc., San Diego, Calif.).
# After detachment of naïve hDMCs and MΦ-co-cultured hDMCs, cell suspensions were prepared in serum-free DMEM. A total of 1.5×10^3 cells in 150 μl serum-free medium were added to each well and incubated for 1 hour at 37° C. After removal of the medium, the cells were washed four times with 150 μl PBS.
# Cell staining and protein extraction were performed according to the manufacturer's instructions. Cellular adhesion was assessed by measuring the optical density at 560 nm on a Gemini XPS Microplate Reader (Molecular Devices, Sunnyvale, Calif.).
# For an adhesion assay for the functional validation of integrin α2β1, the co-cultured hDMCs were incubated with 130 nM BTT 3033 at 37° C. for 30 min. After incubation, an adhesion assay was performed as described above.
# Sequence of integrin α2β1 (P17301 30-1181): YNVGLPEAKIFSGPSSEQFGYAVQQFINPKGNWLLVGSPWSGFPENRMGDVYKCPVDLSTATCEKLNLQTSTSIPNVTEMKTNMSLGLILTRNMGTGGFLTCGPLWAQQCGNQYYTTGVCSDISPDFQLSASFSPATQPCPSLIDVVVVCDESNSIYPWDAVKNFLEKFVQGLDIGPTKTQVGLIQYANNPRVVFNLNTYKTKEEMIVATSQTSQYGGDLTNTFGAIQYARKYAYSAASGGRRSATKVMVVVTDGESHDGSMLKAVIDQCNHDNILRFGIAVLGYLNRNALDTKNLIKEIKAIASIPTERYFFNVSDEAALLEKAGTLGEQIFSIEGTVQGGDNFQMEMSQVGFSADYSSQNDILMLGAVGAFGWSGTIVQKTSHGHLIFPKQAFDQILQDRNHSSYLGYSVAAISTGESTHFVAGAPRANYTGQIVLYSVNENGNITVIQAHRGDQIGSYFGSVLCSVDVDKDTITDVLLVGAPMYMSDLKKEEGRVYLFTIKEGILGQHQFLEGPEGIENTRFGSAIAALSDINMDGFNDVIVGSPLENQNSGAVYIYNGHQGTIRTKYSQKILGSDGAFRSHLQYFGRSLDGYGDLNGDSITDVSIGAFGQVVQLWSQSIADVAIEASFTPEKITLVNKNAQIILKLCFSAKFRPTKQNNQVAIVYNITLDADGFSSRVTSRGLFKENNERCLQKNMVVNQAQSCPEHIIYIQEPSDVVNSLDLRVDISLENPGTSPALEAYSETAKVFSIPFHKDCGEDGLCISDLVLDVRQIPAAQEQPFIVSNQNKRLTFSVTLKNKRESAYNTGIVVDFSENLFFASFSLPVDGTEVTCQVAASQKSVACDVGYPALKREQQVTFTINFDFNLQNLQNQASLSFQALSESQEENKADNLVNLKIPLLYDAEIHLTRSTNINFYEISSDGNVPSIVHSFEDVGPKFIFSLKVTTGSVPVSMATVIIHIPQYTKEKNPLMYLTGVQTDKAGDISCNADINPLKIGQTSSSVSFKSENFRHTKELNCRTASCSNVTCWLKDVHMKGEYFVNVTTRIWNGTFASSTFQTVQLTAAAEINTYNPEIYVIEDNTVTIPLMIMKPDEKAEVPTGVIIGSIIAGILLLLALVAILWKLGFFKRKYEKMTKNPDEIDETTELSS
# Sequence of integrin α2β1 (P05556 21-798 partner): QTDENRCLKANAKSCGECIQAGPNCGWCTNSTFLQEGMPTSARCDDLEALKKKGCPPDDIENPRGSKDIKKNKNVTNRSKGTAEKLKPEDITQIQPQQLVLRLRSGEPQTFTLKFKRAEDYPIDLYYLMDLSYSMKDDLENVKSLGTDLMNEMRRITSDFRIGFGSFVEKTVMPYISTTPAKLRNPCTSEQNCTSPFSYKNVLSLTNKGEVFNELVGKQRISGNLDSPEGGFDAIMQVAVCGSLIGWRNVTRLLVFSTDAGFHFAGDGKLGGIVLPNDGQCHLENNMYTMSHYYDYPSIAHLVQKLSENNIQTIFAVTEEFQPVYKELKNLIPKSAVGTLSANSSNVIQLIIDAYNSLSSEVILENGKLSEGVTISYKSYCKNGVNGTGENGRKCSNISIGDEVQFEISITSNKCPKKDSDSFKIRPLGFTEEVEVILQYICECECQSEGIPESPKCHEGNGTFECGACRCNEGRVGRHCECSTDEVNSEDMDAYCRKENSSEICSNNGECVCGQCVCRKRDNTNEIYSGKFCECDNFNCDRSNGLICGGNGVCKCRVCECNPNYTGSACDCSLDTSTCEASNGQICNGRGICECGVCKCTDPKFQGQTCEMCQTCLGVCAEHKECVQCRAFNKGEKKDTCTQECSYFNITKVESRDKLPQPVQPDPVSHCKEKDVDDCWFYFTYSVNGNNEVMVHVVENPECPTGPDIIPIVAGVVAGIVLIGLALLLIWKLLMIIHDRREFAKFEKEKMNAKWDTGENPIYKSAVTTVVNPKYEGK
compound,measurement,setting,value
"CN(c1ccc(NC(=O)Nc2ccccc2)cc1)S(=O)(=O)c1cnn(-c2ccc(F)cc2)c1 [BTT 3033, 1-(4-Fluorophenyl)-N-methyl-N-[4[[(phenylamino)carbonyl]amino]phenyl]-1H-pyrazole-4-sulfonamide]",Viability (A.U.),hDMCs; BTT 3033 16.25 nM,0.896 ± 0.090 A.U.
same,Viability (A.U.),hDMCs; BTT 3033 32.50 nM,0.844 ± 0.099 A.U.
same,Viability (A.U.),hDMCs; BTT 3033 65.00 nM,0.899 ± 0.075 A.U.
same,Viability (A.U.),hDMCs; BTT 3033 130.00 nM,0.800 ± 0.054 A.U.
same,Viability (A.U.),hDMCs; BTT 3033 260.00 nM,0.854 ± 0.081 A.U.
same,Viability (A.U.),hDMCs; BTT 3033 520.00 nM,0.827 ± 0.069 A.U.
same,cytotoxicity,hDMCs; concentration from 16.25 to 520.00 nM,less than 20.0%
same,EC50,integrin α2β1,130 nM
same,adhesion of co-cultured hDMCs to collagen I,co-cultured hDMCs; un-treated 0.43±0.03,0.27±0.04
same,adhesion of co-cultured hDMCs to collagen IV,co-cultured hDMCs; un-treated 0.44±0.08,0.28±0.08
same,reduction of adhesion of co-cultured hDMCs to collagen I,"co-cultured hDMCs; vs un-treated, p<0.001",37.8%
same,reduction of adhesion of co-cultured hDMCs to collagen IV,"co-cultured hDMCs; vs un-treated, p=0.057",35.7%
